Measurements taken from PMC8344233, “Anticancer activity and toxicity of new quaternary ammonium geldanamycin derivative salts and their mixtures with potentiators” (Journal of Enzyme Inhibition and Medicinal Chemistry, 2021).

Legend:
MDA-MB-231 = assay: MTT cytotoxicity assay, MDA-MB-231 (1st panel); type: cell-based, human
Description: (§1) Cell survival was measured as the percentage absorbance compared to the control (nontreated cells). […]
(§2) SI indexes were calculated from equation SI = IC50 normal cell line HDF/IC50 respective cancerous cell line (Table 2). A beneficial SI > 1.0 indicates a compound with efficacy against tumor cell greater than the toxicity against normal cells.
(§3) All experiments were carried out with human breast adenocarcinoma (MDA-MB-231 and MCF-7), hepatocellular carcinoma (HepG2), human cervical adenocarcinoma (HeLa) cancer cell lines, and human normal lung fibroblast (CCD39Lu) cell line. The cell line was purchased from the European Collection of Cells Cultures (ECACC, Salisbury, UK), and cultured in DMEM with phenol red supplemented with 10% (v/v) FBS, 1% (v/v) penicillin/streptomycin, and 1% (v/v) L-glutamine at 37 °C, in a humidified atmosphere containing 5% CO2.
(§4) The tested compounds were dissolved in DMSO to the final concentration 10 mM and stored […]
(§5) The cytotoxic effect of the tested compounds was determined by MTT assay. MDA-MB-231, MCF-7, HepG2, HeLa, and CCD39Lu cells were seeded in 96 wells plates at density 2x10^4 cells/well and incubated overnight under cell culture condition. Next, cells were treated with tested compounds at concentrations of 10 µM; 5 µM; 2.5 µM; 1.2 µM; 0.6 µM; 0.3 µM; 0.15 […]
(§6) µM. Moreover, GDM (for MCF-7) and 8 (for MCF-7 and MDA-MB-231) due to high cytotoxicity, were additionally tested at a lower concentration range of 2.5 µM; 1.2 µM; 0.6 µM; 0.3 µM; 0.15µM; 0.07 µM; 0.03 µM. DMSO was used as a control, and the concentration […]
(§7) Tested compounds were added to cells in the medium without phenol red. Cells were incubated 72 h at 37 °C in a humidified atmosphere containing 5% CO2.
(§8) Then, the medium was aspirated and MTT solution at a concentration of 0.59 mg/mL in cell culture medium was added to each well. Plates were incubated for 1.5 hours at 37 °C, and then plates were centrifuged for 3 minutes. The formazan crystals were dissolved in 200 µl DMSO and plates were agitated on a plate shaker at 300 –500 rpm for 10 minutes. Absorbance at 570 nm was measured using a plate reader (Biotek Instruments, Elx -800). Data were normalized to the mean absorption of control cells. All experiments were performed at least three times. […]

MCF-7 = assay: MTT cytotoxicity assay, MCF-7 (1st panel); type: cell-based, human
Description: as §1, §2, §3, §4, §5, §6, §7, §8

HeLa = assay: MTT cytotoxicity assay, HeLa (1st panel); type: cell-based, human
Description: as §1, §2, §3, §4, §5, §6, §7, §8

HepG2 = assay: MTT cytotoxicity assay, HepG2 (1st panel); type: cell-based, human
Description: as §1, §2, §3, §4, §5, §6, §7, §8

CCD39Lu = assay: MTT cytotoxicity assay, normal lung fibroblasts CCD39Lu; type: cell-based; details: Fibroblast, ± SD, healthy human lung fibroblasts, 72 h, read-out: IC50 CCD39Lu (toxicity in normal cells)
Description: as §1, §2, §3, §4, §5, §6, §7, §8

SKBR-3 = assay: SRB cytotoxicity assay, SKBR-3 (2nd panel); type: cell-based, human
Description: (§9) Human cancer cells SKBR-3 (human breast cancer cell line) and SKOV-3 (ovarian cancer cell line) were cultured in McCoy’s Modified Medium. […]
(§10) Medium. Human Dermal Fibroblasts cell line (HDF) was cultured in Fibroblast Basal Medium.
(§11) Each medium was supplemented with 10% fetal bovine serum, 1% L-glutamine, and 1% penicillin/streptomycin solution. The cell lines were kept in the incubator at 37◦C. The optimal plating density of cell lines was determined to be 5 × 104. All the cell lines and mediums were obtained from American Type Culture Collection (ATCC) supplied by LGC-Standards. The protein-staining SRB (Sigma-Aldrich) microculture colorimetric assay, developed by the National Cancer Institute (USA) for in vitro antitumor screening was used in this study, to estimate the cell number by providing a sensitive index of total cellular protein content, being linear to cell density. The monolayer cell culture was trypsinized and the cell count was adjusted to 5 × 10^4 cells. To each well of the 96 well microtiter plate, 0.1 mL of the diluted cell suspension (approximately […]) was added. After 24 hours, when a partial monolayer was formed, the supernatant was washed out and 100 μL of six different compound concentrations (0.1, 0.2, 1, 2, 10, and 20 μM) were added to the cells in microtitre plates. The tested compounds were dissolved in DMSO (containing 10 % of water) (100 μL) and the […]
(§12) lines. The cells were exposed to compounds for 72 hours at 37 °C in a humidified atmosphere (90% RH) containing 5% CO2. After that, 25 μL of 50 % trichloroacetic acid was added to the wells and the plates were incubated for 1 hour at 4◦C. The plates were then washed out with the distilled water to remove traces of medium and next dried by the air. The air-dried plates were stained with 100 μL of 0.4% sulforhodamine B (prepared in 1 % acetic acid) and kept for 30 minutes at room temperature. The unbound dye was removed by rapidly washing with 1% […]
(§13) acetic acid and then air dried overnight. The protein-bound dye was dissolved in 100 μL of 10 mM unbuffered Tris base (pH 10.5) for optical density determination at 490 nm. All cytotoxicity experiments were performed three times. Cell survival was measured as the percentage absorbance compared to the control (nontreated cells). Cytarabine (ara-C) and GDM were used as the internal standards. Additionally biological assays were performed in Human Dermal Fibroblasts cell line (HDF) in aim to evaluate cytotoxicity of GDM and its 1-13 analogs in healthy cells. SI indexes were calculated from equation SI = IC50 normal cell line HDF/IC50 respective cancerous cell line (Table 2). A beneficial SI > 1.0 indicates a compound with efficacy against tumor cell greater than the toxicity against normal cells. […]

SKOV-3 = assay: SRB cytotoxicity assay, SKOV-3 (2nd panel); type: cell-based, human
Description: as §9, §10, §11, §12, §13

PC-3 = assay: SRB cytotoxicity assay, PC-3 (2nd panel); type: cell-based, human
Description: as §10, §11, §12, §13

U-87 = assay: SRB cytotoxicity assay, U-87 (2nd panel); type: cell-based, human
Description: U-87MG cells (glioblastoma cell line) were cultured in Eagle’s Minimal Essential Medium. Human Dermal Fibroblasts cell line (HDF) was cultured in Fibroblast Basal Medium.
as §11, §12, §13

A-549 = assay: SRB cytotoxicity assay, A-549 (2nd panel); type: cell-based, human
Description: as §10, §11, §12, §13

HDF = assay: SRB cytotoxicity assay, human dermal fibroblasts HDF; type: cell-based; details: 72 h, ± SD, mixtures equimolar 1:1, read-out: IC50 HDF (toxicity in normal cells)
Description: as §10, §11, §12, §13

COC1=C2C[C@@H](C)C[C@H](OC)[C@H](O)[C@@H](C)/C=C(\C)[C@H](OC(N)=O)[C@@H](OC)/C=C\C=C(/C)C(=O)NC(=CC1=O)C2=O [GDM, Geldanamycin]
IC50 (MDA-MB-231; Homo sapiens, MDA-MB-231, ± SD, MTT, 72 h): 1040 ± 630 nM | selectivity index SI (MDA-MB-231) (MDA-MB-231; IC50 normal cell line CCD39Lu/IC50 MDA-MB-231): 8.17 | IC50 (MCF-7; Homo sapiens, MCF7, 72 h, ± SD, MTT, 72 h): 3510 ± 210 nM | selectivity index SI (MCF-7) (MCF-7; IC50 normal cell line CCD39Lu/IC50 MCF-7): 2.42 | IC50 (HeLa; Homo sapiens, HeLa, ± SD, MTT, 72 h): 1420 ± 100 nM | selectivity index SI (HeLa) (HeLa; IC50 normal cell line CCD39Lu/IC50 HeLa): 5.99 | IC50 (HepG2; Homo sapiens, HepG2, ± SD, MTT, 72 h): 740 ± 320 nM | selectivity index SI (HepG2) (HepG2; IC50 normal cell line CCD39Lu/IC50 HepG2): 11.48 | IC50 (CCD39Lu): 8500 ± 250 nM | IC50 (SKBR-3; Homo sapiens, SK-BR-3, ± SD, SRB, 72 h, mixtures equimolar 1:1): 870 ± 170 nM | selectivity index SIHDF (SKBR-3) (SKBR-3; IC50 normal cell line HDF/IC50 SKBR-3): 2.45 | IC50 (SKOV-3; Homo sapiens, SK-OV-3, ± SD, SRB, 72 h, mixtures equimolar 1:1): 940 ± 90 nM | selectivity index SIHDF (SKOV-3) (SKOV-3; IC50 normal cell line HDF/IC50 SKOV-3): 2.27 | IC50 (PC-3; Homo sapiens, PC-3, ± SD, SRB, 72 h, mixtures equimolar 1:1): 730 ± 10 nM | selectivity index SIHDF (PC-3) (PC-3; IC50 normal cell line HDF/IC50 PC-3): 2.92 | IC50 (U-87; Homo sapiens, U-87 MG, ± SD, SRB, 72 h): 810 ± 120 nM | selectivity index SIHDF (U-87) (U-87; IC50 normal cell line HDF/IC50 U-87): 2.62 | IC50 (A-549; Homo sapiens, A549, ± SD, SRB, 72 h): 990 ± 10 nM | selectivity index SIHDF (A-549) (A-549; IC50 normal cell line HDF/IC50 A-549): 2.15 | CC50 (HDF): 2130 ± 110 nM | Solubility SH2O (Water solubility SH2O): almost water-insoluble
